Source: US10994015B2, “EGFR proteolysis targeting chimeric molecules and associated methods of use” (Arvinas Operations, Inc., priority 2016, dated 2021)

Experiments:
[1] = target: EGFR L858R/T790M double mutant (H1975) (Homo sapiens (Human), UniProt P00533, L858R/T790M); test: EGFR protein degradation assay (Western blot); type: cell-based; conditions: 72 hours, 300 nM to 10 nM
Description: EGFR Protein Degradation assay
Cells expressing the appropriate form of EGFR were seeded in 6-well plates (300,000 cells per well) and allowed to adhere to the plate overnight. […] To harvest cells, media was removed and cells were washed once with ice-cold phosphate-buffered saline (PBS) prior to the addition of 400 μl lysis buffer (Cell Signaling Technology) supplemented with a protease inhibitor cocktail (Thermo Scientific). Cells were scraped from the plate and the cell lysate transferred to an Eppendorf tube and then clarified by a single spin at 10 000 rpm for 10 minutes. The protein concentration of each lysate was determined (BCA kit, Thermo Scientific) prior to the addition of loading buffer (Invitrogen) and reducing agent (Invitrogen). 10 μg protein of each lysate was loaded on an SDS/PAGE gel and run at 165V for 2 hours. Following transfer to a PVDF membrane (iBlot2, Thermo Fisher Scientific), the membrane was blocked in Tris-buffered saline containing 0.1% Tween-20 (TBS-T) and supplemented with 5% powdered milk for 1 hour. Membranes were then probed with EGFR and tubulin (loaded control) primary antibodies in TBS-T containing 3% bovine serum albumin (BSA) overnight at 4° C. Membranes were washed thrice with TBS-T before incubation with secondary antibody in TBS-T containing 3% bovine serum albumin (BSA) and incubated for 1 hour at room temperature. Following 3 further washes with TBS, membrane proteins of interest were detected by enzyme-linked chemiluminescence (ECL) using a Chemidoc (Bio-Rad).

[2] = target: EGFR L858R/T790M/C797S (Homo sapiens (Human), UniProt P00533, C797S/L858R/T790M); test: TR-FRET assay for ERBB kinases; type: biochemical; conditions: geometric mean if measured more than once
Description: (§1) TR-FRET Assay for ERBB Kinases
(§2) All compounds and PROTACs were serially diluted in three-fold increments using 100% DMSO, followed by an intermediate 10-fold dilution using Buffer A (50 mM HEPES, pH 7.5, 50 mM NaCl, 10 mM MgCl2, 1 mM DTT, and 0.1% Pluronic F-68). […] Next, 10 uL of protein kinase in Buffer A was added to each well of the assay plate and pre-incubated with compound for 10 minutes. Kinase reactions were then initiated by addition of 5 uL substrate mix containing 3 mM ATP and 30 uM fluorescein-labeled Poly-GluTyr (Thermo Fisher, #PV3610) in Buffer A and allowed to proceed for 10 minutes at room temperature. Reactions were quenched by addition of a 5 uL mixture containing 5 nM LanthaScreen® Tb-pY20 Antibody (Thermo Fisher, #PV3552) and 40 mM EDTA in Buffer A. Assay plates were then read using a Synergy2 (Biotek Instruments, Winooski, Vt.) via excitation thru a 340/20 nm bandpass filter and emission collected thru 490/10 nm (donor) and 520/25 nm (acceptor) bandpass filters.

[3] = target: EGFR L858R/T790M (Homo sapiens (Human), UniProt P00533, L858R/T790M); test: TR-FRET assay for ERBB kinases; type: biochemical; conditions: geometric mean if measured more than once
EGFR L858R/T790M, sequence (P00533 25-1210 T790M/L858R): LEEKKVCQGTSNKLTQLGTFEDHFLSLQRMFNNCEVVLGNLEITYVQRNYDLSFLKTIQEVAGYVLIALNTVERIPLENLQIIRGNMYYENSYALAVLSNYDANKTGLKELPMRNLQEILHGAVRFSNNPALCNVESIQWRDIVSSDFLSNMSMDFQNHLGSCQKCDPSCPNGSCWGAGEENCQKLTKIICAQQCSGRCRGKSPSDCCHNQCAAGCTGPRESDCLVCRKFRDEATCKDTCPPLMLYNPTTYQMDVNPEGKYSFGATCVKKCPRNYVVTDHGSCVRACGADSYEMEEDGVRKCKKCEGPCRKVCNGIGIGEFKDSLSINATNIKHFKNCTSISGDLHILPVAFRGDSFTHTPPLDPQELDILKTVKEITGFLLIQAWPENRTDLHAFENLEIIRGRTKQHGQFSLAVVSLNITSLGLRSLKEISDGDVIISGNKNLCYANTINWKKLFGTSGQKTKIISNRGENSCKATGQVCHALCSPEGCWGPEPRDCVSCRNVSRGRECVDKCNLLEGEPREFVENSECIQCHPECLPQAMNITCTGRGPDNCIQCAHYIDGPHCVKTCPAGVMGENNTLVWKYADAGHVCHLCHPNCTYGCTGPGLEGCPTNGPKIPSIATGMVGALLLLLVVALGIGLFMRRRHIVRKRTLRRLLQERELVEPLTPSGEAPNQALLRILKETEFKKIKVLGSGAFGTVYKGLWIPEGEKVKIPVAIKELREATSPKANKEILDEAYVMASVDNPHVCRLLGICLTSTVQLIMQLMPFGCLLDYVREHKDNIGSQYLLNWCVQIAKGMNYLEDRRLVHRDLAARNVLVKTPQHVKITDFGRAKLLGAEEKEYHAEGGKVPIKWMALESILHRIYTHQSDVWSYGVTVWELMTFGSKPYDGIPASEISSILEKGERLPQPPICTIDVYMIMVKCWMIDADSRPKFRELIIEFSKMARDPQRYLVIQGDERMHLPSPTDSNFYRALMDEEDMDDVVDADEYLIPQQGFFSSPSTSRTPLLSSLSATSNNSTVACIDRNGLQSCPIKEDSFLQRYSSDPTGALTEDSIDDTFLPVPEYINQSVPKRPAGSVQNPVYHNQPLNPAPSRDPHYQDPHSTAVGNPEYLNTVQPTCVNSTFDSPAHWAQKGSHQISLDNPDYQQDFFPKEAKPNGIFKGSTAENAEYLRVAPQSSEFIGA
Description: as §1, §2

[4] = target: EGFR WT (Homo sapiens (Human), UniProt P00533); test: TR-FRET assay for ERBB kinases; type: biochemical; conditions: geometric mean if measured more than once
EGFR WT, sequence (P00533 25-1210): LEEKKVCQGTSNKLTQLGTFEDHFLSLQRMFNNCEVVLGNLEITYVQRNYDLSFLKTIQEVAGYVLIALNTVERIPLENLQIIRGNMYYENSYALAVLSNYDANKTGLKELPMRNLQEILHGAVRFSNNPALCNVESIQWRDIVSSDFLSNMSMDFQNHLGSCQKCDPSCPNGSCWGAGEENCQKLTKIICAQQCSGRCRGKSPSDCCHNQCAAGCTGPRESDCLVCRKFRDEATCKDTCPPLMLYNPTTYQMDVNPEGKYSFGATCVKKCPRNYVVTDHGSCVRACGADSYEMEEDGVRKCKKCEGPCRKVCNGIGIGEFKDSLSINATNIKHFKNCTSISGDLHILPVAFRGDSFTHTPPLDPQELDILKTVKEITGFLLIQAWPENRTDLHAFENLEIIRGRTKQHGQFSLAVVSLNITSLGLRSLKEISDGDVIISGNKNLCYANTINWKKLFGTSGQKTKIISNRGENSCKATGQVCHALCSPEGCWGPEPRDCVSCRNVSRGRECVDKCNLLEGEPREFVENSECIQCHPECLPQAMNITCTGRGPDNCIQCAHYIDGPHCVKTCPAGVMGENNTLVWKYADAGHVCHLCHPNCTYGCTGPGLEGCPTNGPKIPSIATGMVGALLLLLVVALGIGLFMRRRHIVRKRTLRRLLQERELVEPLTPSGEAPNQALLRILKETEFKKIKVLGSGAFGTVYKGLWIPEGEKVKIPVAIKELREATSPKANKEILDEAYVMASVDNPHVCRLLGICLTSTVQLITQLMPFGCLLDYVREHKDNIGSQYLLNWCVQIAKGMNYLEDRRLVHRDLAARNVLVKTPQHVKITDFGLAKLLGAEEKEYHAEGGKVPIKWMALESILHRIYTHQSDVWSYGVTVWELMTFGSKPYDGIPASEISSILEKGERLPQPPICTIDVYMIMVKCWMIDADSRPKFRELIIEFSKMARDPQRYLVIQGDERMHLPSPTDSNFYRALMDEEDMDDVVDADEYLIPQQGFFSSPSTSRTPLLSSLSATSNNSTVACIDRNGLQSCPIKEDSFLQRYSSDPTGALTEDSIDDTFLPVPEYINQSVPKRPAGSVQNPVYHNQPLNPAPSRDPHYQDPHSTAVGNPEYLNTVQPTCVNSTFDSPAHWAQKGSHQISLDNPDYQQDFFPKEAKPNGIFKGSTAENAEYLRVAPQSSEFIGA
Description: as §1, §2

[5] = target: EGFR Exon20NPG (Homo sapiens (Human), UniProt P00533, INS770NPG); test: TR-FRET assay for ERBB kinases; type: biochemical; conditions: geometric mean if measured more than once
EGFR Exon20NPG, sequence (P00533 other isoform, or with tags, fused parts or gaps del 1-694/ins NPG behind 770 limits assumed): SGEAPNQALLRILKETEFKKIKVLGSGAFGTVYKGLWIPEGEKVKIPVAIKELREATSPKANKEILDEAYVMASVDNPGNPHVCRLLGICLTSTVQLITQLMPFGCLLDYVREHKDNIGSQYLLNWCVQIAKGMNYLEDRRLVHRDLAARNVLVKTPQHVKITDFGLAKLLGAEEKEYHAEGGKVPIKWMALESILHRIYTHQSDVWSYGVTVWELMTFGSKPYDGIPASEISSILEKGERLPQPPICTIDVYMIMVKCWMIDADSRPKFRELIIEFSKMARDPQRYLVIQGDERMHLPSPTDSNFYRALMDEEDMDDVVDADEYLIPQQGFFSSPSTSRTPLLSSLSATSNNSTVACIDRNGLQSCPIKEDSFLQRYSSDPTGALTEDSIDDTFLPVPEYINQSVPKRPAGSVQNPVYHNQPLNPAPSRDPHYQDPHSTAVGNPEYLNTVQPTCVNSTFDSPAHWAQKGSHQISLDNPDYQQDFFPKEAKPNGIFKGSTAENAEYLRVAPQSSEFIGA
Description: as §1
All compounds and PROTACs were serially diluted in three-fold increments using 100% DMSO, followed by an intermediate 10-fold dilution using Buffer A (50 mM HEPES, pH 7.5, 50 mM NaCl, 10 mM MgCl2, 1 mM DTT, and 0.1% Pluronic F-68). Two microliters of serially diluted compound or PROTAC were then transferred to black 384-well Proxiplates (PerkinElmer, #6008260) using an Integra Viaflo96. Next, 10 uL of protein kinase in Buffer A was added to each well of the assay plate and pre-incubated with compound for 10 minutes. Kinase reactions were then initiated by addition of 5 uL substrate mix containing 3 mM ATP and 30 uM fluorescein-labeled Poly-GluTyr (Thermo Fisher, #PV3610) in Buffer A and allowed to proceed for 10 minutes at room temperature. Reactions were quenched by addition of a 5 uL mixture containing 5 nM LanthaScreen® Tb-pY20 Antibody (Thermo Fisher, #PV3552) and 40 mM EDTA in Buffer A. Assay plates were then read using a Synergy2 (Biotek Instruments, Winooski, Vt.) via excitation thru a 340/20 nm bandpass filter and emission collected thru 490/10 nm (donor) and 520/25 nm (acceptor) bandpass filters.

EGFR L858R/T790M double mutant (H1975), sequence (P00533 25-1210 T790M/L858R): as the sequence (P00533 25-1210 T790M/L858R) above

Structure (SMILES) | EGFR protein remaining, EGFR L858R/T790M double mutant [1] | IC50 [2] [µM] | IC50 [3] [µM] | IC50 [4] [µM] | IC50 [5] [µM]
Cc1ncsc1-c1ccc(CNC(=O)[C@@H]2C[C@@H](O)CN2C(=O)C(C(C)C)N2Cc3ccccc3C2=O)c(OCCCCOc2ccc(-c3nccc(Nc4cc5c(cn4)nc(C)n5C(C)C)n3)cc2)c1 (some centres unmarked) [compound 277] | C (>80% EGFR protein remaining after 72 hours of incubation with the test compound at a concentration of 300 nM) | > 30 | > 30 | > 30 | > 30
COC1CCN(c2nccc(Nc3cc4c(cn3)nc(-c3ccc(CN5CCN(CCOc6ccc7c(c6)C(=O)N(C6CCC(=O)NC6=O)C7=O)CC5)cc3)n4C(C)C)n2)CC1 (centres unmarked) [Example 286, 2-(2,6-dioxopiperidin-3-yl)-5-(2-(4-(4-(1-isopropyl-6-((2-(4-methoxypiperidin-1-yl)pyrimidin-4-yl)amino)-1H-imidazo[4,5-c]pyridin-2-yl)benzyl)piperazin-1-yl)ethoxy)isoindoline-1,3-dione] |  | 0.17 | 0.48 | 7.3 | 
COC1CCN(c2nccc(Nc3cc4c(cn3)nc(COCCN3CCN(CCOCC(=O)N[C@H](C(=O)N5C[C@H](O)C[C@H]5C(=O)N[C@@H](C)c5ccc(-c6scnc6C)cc5)C(C)(C)C)CC3)n4C(C)C)n2)CC1 [compound 86] | C (>80% EGFR protein remaining after 72 hours of incubation with the test compound at a concentration of 300 nM) | 2.4 | 12 | > 30 | 24
Cc1ncsc1-c1ccc([C@H](C)NC(=O)[C@H]2C[C@H](O)CN2C(=O)[C@@H](NC(=O)COCCOCCOc2ccc(-c3nccc(Nc4cc5c(cn4)nc(C)n5C(C)C)n3)cc2)C(C)(C)C)cc1 [Example 276, (2R,4S)-4-hydroxy-1-((S)-2-(2-(2-(2-(4-(4-((1-isopropyl-2-methyl-1H-imidazo[4,5-c]pyridin-6-yl)amino)pyrimidin-2-yl)phenoxy)ethoxy)ethoxy)acetamido)-3,3-dimethylbutanoyl)-N—((S)-1-(4-(4-methylthiazol-5-yl)phenyl)ethyl)pyrrolidine-2-carboxamide] | C (>80% EGFR protein remaining after 72 hours of incubation with the test compound at a concentration of 300 nM) | 29 | 23 | 20 | > 30
Cc1ncsc1-c1ccc([C@H](C)NC(=O)[C@H]2C[C@H](O)CN2C(=O)[C@@H](NC(=O)COCCOCCOCCOc2ccc(-c3nccc(Nc4cc5c(cn4)nc(C)n5C(C)C)n3)cc2)C(C)(C)C)cc1 [compound 278] |  | > 30 | > 30 | 30 | > 30
COC1CCN(c2nccc(Nc3cc4c(cn3)nc(COCCOCCN3CCN(CCOc5ccc6c(c5)C(=O)N(C5CCC(=O)NC5=O)C6=O)CC3)n4C(C)C)n2)CC1 (centres unmarked) [compound 88] | C (>80% EGFR protein remaining after 72 hours of incubation with the test compound at a concentration of 300 nM) | 9.4 | 11 | > 30 | 3.1
Cc1ncsc1-c1ccc([C@H](C)NC(=O)[C@H]2C[C@H](O)CN2C(=O)[C@@H](NC(=O)COCCOCCOCCOCCOc2ccc(-c3nccc(Nc4cc5c(cn4)nc(C)n5C(C)C)n3)cc2)C(C)(C)C)cc1 [compound 279] |  | > 30 | 29 | 16 | > 30
COC1CCN(c2nccc(Nc3cc4c(cn3)nc(COCCCN3CCN(CCCOCC(=O)N[C@H](C(=O)N5C[C@H](O)C[C@H]5C(=O)N[C@@H](C)c5ccc(-c6scnc6C)cc5)C(C)(C)C)CC3)n4C(C)C)n2)CC1 [Example 85, (2S,4R)-4-hydroxy-1-((S)-2-(2-(3-(4-(3-((1-isopropyl-6-((2-(4-methoxypiperidin-1-yl)pyrimidin-4-yl)amino)-1H-imidazo[4,5-c]pyridin-2-yl)methoxy)propyl)piperazin-1-yl)propoxy)acetamido)-3,3-dimethylbutanoyl)-N—((S)-1-(4-(4-methylthiazol-5-yl)phenyl)ethyl)pyrrolidine-2-carboxamide] | C (>80% EGFR protein remaining after 72 hours of incubation with the test compound at a concentration of 300 nM) | 3.9 | 16 | > 30 | > 30
COC1CCN(c2nccc(Nc3cc4[nH]c(COCCN5CCN(c6ccc7c(c6)C(=O)N(C6CCC(=O)NC6=O)C7=O)CC5)nc4cn3)n2)CC1 (centres unmarked) [compound 288] |  | 2 | 6.9 | 5.9 | 
COC1(CCN2CCN(CCCOCCCOCC(=O)N[C@H](C(=O)N3C[C@H](O)C[C@H]3C(=O)N[C@@H](C)c3ccc(-c4scnc4C)cc3)C(C)(C)C)CC2)CCN(c2nccc(Nc3cc4c(cn3)nc(C)n4C(C)C)n2)CC1 [Example 292, (2S,4R)-4-hydroxy-1-((S)-2-(2-(3-(3-(4-(2-(1-(4-((1-isopropyl-2-methyl-1H-imidazo[4,5-c]pyridin-6-yl)amino)pyrimidin-2-yl)-4-methoxypiperidin-4-yl)ethyl)piperazin-1-yl)propoxy)propoxy)acetamido)-3,3-dimethylbutanoyl)-N—((S)-1-(4-(4-methylthiazol-5-yl)phenyl)ethyl)pyrrolidine-2-carboxamide] |  | 11 | 19 | 39 | 
Cc1ncsc1-c1ccc([C@H](C)NC(=O)[C@@H]2C[C@@H](O)CN2C(=O)[C@@H](NC(=O)COCCCOCCCN2CCC3(CC2)CCN(c2nccc(Nc4cc5c(cn4)nc(C)n5C(C)C)n2)CC3)C(C)(C)C)cc1 [Example 282, (2S,4R)-4-hydroxy-1-((S)-2-(2-(3-(3-(9-(4-((1-isopropyl-2-methyl-1H-imidazo[4,5-c]pyridin-6-yl)amino)pyrimidin-2-yl)-3,9-diazaspiro[5.5]undecan-3-yl)propoxy)propoxy)acetamido)-3,3-dimethylbutanoyl)-N—((S)-1-(4-(4-methylthiazol-5-yl)phenyl)ethyl)pyrrolidine-2-carboxamide] |  | 23 | > 30 | 12 | > 30
Cc1ncsc1-c1ccc(CNC(=O)[C@@H]2C[C@@H](O)CN2C(=O)C(C(C)C)N2Cc3ccccc3C2=O)c(OCCOCCOCCOCCOc2ccc(-c3nccc(Nc4cc5c(cn4)nc(C)n5C(C)C)n3)cc2)c1 (some centres unmarked) [compound 281] |  | 15 | > 30 | 12 | > 30
O=C1CCC(N2C(=O)c3ccc(N4CCN(CC5CCN(CC#Cc6cccc7c6C(=O)N(C(C(=O)Nc6nccs6)c6cc(F)ccc6O)C7)CC5)CC4)cc3C2=O)C(=O)N1 (centres unmarked) [compound 293] |  | 0.64 | 4.2 | 1.7 | 
COC1CCN(c2nccc(Nc3cc4c(cn3)nc(COCCN3CCN(c5ccc6c(c5)C(=O)N(C5CCC(=O)NC5=O)C6=O)CC3)n4C(C)(C)C)n2)CC1 (centres unmarked) [compound 287] |  | 0.016 | 0.074 | 6.7 | 
Cc1ncsc1-c1ccc([C@H](C)NC(=O)[C@H]2C[C@H](O)CN2C(=O)[C@@H](NC(=O)COCCCOCCCN2CCOC3(CCN(c4nccc(Nc5cc6c(cn5)nc(C)n6C(C)C)n4)CC3)C2)C(C)(C)C)cc1 [compound 285] |  | 17 | 35 | 26 | 
